EP0444659B1, “A pharmaceutical solution comprising derivatives of FK506” (FUJISAWA PHARMACEUTICAL CO., LTD., priority 1990, dated 1991)
≈ marks a conversion by molar mass, not a printed value.

Key:
Type in all cases: physicochemical
[1] = dilution of the solution with physiological saline: clarity, turbidity and crystal separation
Method: Nonaqueous solvent is, at the time of administrating into the human vascular tract, usually diluted with aqueous solvent such as physiological saline, since nonaqueous solvent has hemolysis action.
The experimental solution (1ml) of the following prescription 3 consisting of FK 506, surface active agent and nonaqueous solvent was diluted with physiological saline (100ml) to find that the clear appearance of prescription was kept unchanged.
Then several prescriptions of clear solution were further prepared altering the concentration of FK 506, the kind and the concentration of surface active agent, and were tested how change the clearity of the solution and whether separate out the crystal or not under the several condition of different degree of dilution.

physchem = assay: physchem
From the text: From the above point of view, the inventors of the present invention studied, at first, the solubility of the compound (I) in water. As a test compound, the inventors selected the following compound as a free form which has an excellent immunosupressive activity and is called FK 506 hereafter. R^1, R^2, R^8, R^23 = hydrogen R^7, R^9 = hydroxy R^14, R^15, R^16, R^17, R^18, R^19, R^22 = methyl R^10 = allyl R^20 = R^20a,H (R^20a = methoxy) X, Y = oxygen R^21 = R^21a,H (R^21a = hydroxy) n = 2 R^3, R^4 = form a second bond between the vicinal carbon atoms to which they are attached R^5, R^6 = form a second bond between the vicinal carbon atoms to which they are attached
The solubility of FK 506 in water is at most 3 µg/ml under ambient temperature. Accordingly, it is decided to add a surface active agent in order to increase the solubility of FK 506 in water to the level where the clinically effective amount of FK 506 is dissolved. […] As a surface active agent, a castor oil-surface active agent i.e., HCO-10, HCO-40, HCO-60 (trademark, prepared by Nikko Chemicals, respectively) are selected for examination.
It is conjectured from the result shown in Table 1 that the concentration of the surface active agent should be controlled at 1.43w/v% [about 150mg of the surface active agent against 1mg of FK506] to dissolve 0.1mg of FK 506 in 1ml of water, calculating based on the result that 0.035mg of FK 506 is dissolved in 1ml of 0.5w/v% HCO-60 aqueous solution at 20 °C. Accordingly, if it is desired to prepare 5mg/ml aqueous solution FK 506, the concentration of the surface active agent is estimated to come up to 87w/v% from the calculation based on the result of HCO-60, 20w/v%, 20°C. Such […] high concentration of surface active agent in aqueous solution should not be realized in practice of clinical field.

[2] = solubility of FK 506 in nonaqueous solvents; settings: for solubility: ambient temperature
[3] = remaining percentage of FK 506 in aqueous solution with large amount of surface active agent (storage stability); settings: FK 506 dissolved in water in the presence of large amount of surface active agent; Table 2 is an image

C=CCC1C=C(C)CC(C)CC(OC)C2OC(O)(C(=O)C(=O)N3CCCCC3C(=O)OC(C(C)=CC3CCC(O)C(OC)C3)C(C)C(O)CC1=O)C(C)CC2OC (stereo not shown) [FK 506, 17-allyl-1,14-dihydroxy-12-[2-(4-hydroxy-3-methoxycyclohexyl)-1-methylvinyl]-23, 25-dimethoxy-13,19,21,27-tetramethyl-11, 28-dioxa-4-azatricyclo-[22.3.1.0^4.9] octacos-18-ene-2,3,10,16-tetraone]
Period till solution becomes turbid to crystallize FK506 ([1]; FK 506 5 mg/ml, dilution times with physiological saline 2, Cremophor®EL, ethanol/surface active agent 35/65): ≧7 days
Period till solution becomes turbid to crystallize FK506 ([1]; FK 506 5 mg/ml, dilution times with physiological saline 2, Cremophor®EL, ethanol/surface active agent 80/20): ≧7 days
Period till solution becomes turbid to crystallize FK506 ([1]; FK 506 5 mg/ml, dilution times with physiological saline 2, HCO-40, ethanol/surface active agent 40/60): ≧7 days
Period till solution becomes turbid to crystallize FK506 ([1]; FK 506 5 mg/ml, dilution times with physiological saline 2, HCO-40, ethanol/surface active agent 80/20): ≧7 days
Period till solution becomes turbid to crystallize FK506 ([1]; FK 506 5 mg/ml, dilution times with physiological saline 2, HCO-60, ethanol/surface active agent 35/65): ≧7 days
Period till solution becomes turbid to crystallize FK506 ([1]; FK 506 5 mg/ml, dilution times with physiological saline 2, HCO-60, ethanol/surface active agent 60/40): ≧7 days
Period till solution becomes turbid to crystallize FK506 ([1]; FK 506 5 mg/ml, dilution times with physiological saline 2, HCO-60, ethanol/surface active agent 80/20): ≧7 days
Period till solution becomes turbid to crystallize FK506 ([1]; FK 506 5 mg/ml, dilution times with physiological saline 100, Cremophor®EL, ethanol/surface active agent 35/65): ≧7 days
Period till solution becomes turbid to crystallize FK506 ([1]; FK 506 5 mg/ml, dilution times with physiological saline 100, Cremophor®EL, ethanol/surface active agent 80/20): ≧7 days
Period till solution becomes turbid to crystallize FK506 ([1]; FK 506 5 mg/ml, dilution times with physiological saline 100, HCO-40, ethanol/surface active agent 40/60): ≧7 days
Period till solution becomes turbid to crystallize FK506 ([1]; FK 506 5 mg/ml, dilution times with physiological saline 100, HCO-40, ethanol/surface active agent 80/20): ≧7 days
Period till solution becomes turbid to crystallize FK506 ([1]; FK 506 5 mg/ml, dilution times with physiological saline 100, HCO-60, ethanol/surface active agent 35/65): ≧7 days
Period till solution becomes turbid to crystallize FK506 ([1]; FK 506 5 mg/ml, dilution times with physiological saline 100, HCO-60, ethanol/surface active agent 60/40): ≧7 days
Period till solution becomes turbid to crystallize FK506 ([1]; FK 506 5 mg/ml, dilution times with physiological saline 100, HCO-60, ethanol/surface active agent 80/20): ≧7 days
Period till solution becomes turbid to crystallize FK506 ([1]; FK 506 10 mg/ml, dilution times with physiological saline 2, Cremophor®EL, ethanol/surface active agent 35/65): ≧7 days
Period till solution becomes turbid to crystallize FK506 ([1]; FK 506 10 mg/ml, dilution times with physiological saline 2, Cremophor®EL, ethanol/surface active agent 80/20): ≧7 days
Period till solution becomes turbid to crystallize FK506 ([1]; FK 506 10 mg/ml, dilution times with physiological saline 2, HCO-40, ethanol/surface active agent 40/60): ≧7 days
Period till solution becomes turbid to crystallize FK506 ([1]; FK 506 10 mg/ml, dilution times with physiological saline 2, HCO-40, ethanol/surface active agent 80/20): ≧7 days
Period till solution becomes turbid to crystallize FK506 ([1]; FK 506 10 mg/ml, dilution times with physiological saline 2, HCO-60, ethanol/surface active agent 35/65): ≧7 days
Period till solution becomes turbid to crystallize FK506 ([1]; FK 506 10 mg/ml, dilution times with physiological saline 2, HCO-60, ethanol/surface active agent 60/40): ≧7 days
Period till solution becomes turbid to crystallize FK506 ([1]; FK 506 10 mg/ml, dilution times with physiological saline 2, HCO-60, ethanol/surface active agent 80/20): ≧7 days
Period till solution becomes turbid to crystallize FK506 ([1]; FK 506 10 mg/ml, dilution times with physiological saline 100, Cremophor®EL, ethanol/surface active agent 35/65): ≧7 days
Period till solution becomes turbid to crystallize FK506 ([1]; FK 506 10 mg/ml, dilution times with physiological saline 100, Cremophor®EL, ethanol/surface active agent 80/20): ≧7 days
Period till solution becomes turbid to crystallize FK506 ([1]; FK 506 10 mg/ml, dilution times with physiological saline 100, HCO-40, ethanol/surface active agent 40/60): ≧7 days
Period till solution becomes turbid to crystallize FK506 ([1]; FK 506 10 mg/ml, dilution times with physiological saline 100, HCO-40, ethanol/surface active agent 80/20): ≧7 days
Period till solution becomes turbid to crystallize FK506 ([1]; FK 506 10 mg/ml, dilution times with physiological saline 100, HCO-60, ethanol/surface active agent 35/65): ≧7 days
Period till solution becomes turbid to crystallize FK506 ([1]; FK 506 10 mg/ml, dilution times with physiological saline 100, HCO-60, ethanol/surface active agent 60/40): ≧7 days
Period till solution becomes turbid to crystallize FK506 ([1]; FK 506 10 mg/ml, dilution times with physiological saline 100, HCO-60, ethanol/surface active agent 80/20): ≧7 days
Period till solution becomes turbid to crystallize FK506 ([1]; FK 506 25 mg/ml, dilution times with physiological saline 2, Cremophor®EL, ethanol/surface active agent 35/65): ≧7 days
Period till solution becomes turbid to crystallize FK506 ([1]; FK 506 25 mg/ml, dilution times with physiological saline 2, Cremophor®EL, ethanol/surface active agent 80/20): ≧7 days
Period till solution becomes turbid to crystallize FK506 ([1]; FK 506 25 mg/ml, dilution times with physiological saline 2, HCO-40, ethanol/surface active agent 40/60): ≧7 days
Period till solution becomes turbid to crystallize FK506 ([1]; FK 506 25 mg/ml, dilution times with physiological saline 2, HCO-40, ethanol/surface active agent 80/20): ≧7 days
Period till solution becomes turbid to crystallize FK506 ([1]; FK 506 25 mg/ml, dilution times with physiological saline 2, HCO-60, ethanol/surface active agent 35/65): ≧7 days
Period till solution becomes turbid to crystallize FK506 ([1]; FK 506 25 mg/ml, dilution times with physiological saline 2, HCO-60, ethanol/surface active agent 60/40): ≧7 days
Period till solution becomes turbid to crystallize FK506 ([1]; FK 506 25 mg/ml, dilution times with physiological saline 2, HCO-60, ethanol/surface active agent 80/20): ≧7 days
Period till solution becomes turbid to crystallize FK506 ([1]; FK 506 25 mg/ml, dilution times with physiological saline 100, Cremophor®EL, ethanol/surface active agent 35/65): ≧7 days
Period till solution becomes turbid to crystallize FK506 ([1]; FK 506 25 mg/ml, dilution times with physiological saline 100, Cremophor®EL, ethanol/surface active agent 80/20): ≧1 days
Period till solution becomes turbid to crystallize FK506 ([1]; FK 506 25 mg/ml, dilution times with physiological saline 100, HCO-40, ethanol/surface active agent 40/60): ≧7 days
Period till solution becomes turbid to crystallize FK506 ([1]; FK 506 25 mg/ml, dilution times with physiological saline 100, HCO-40, ethanol/surface active agent 80/20): ≧1 days
Period till solution becomes turbid to crystallize FK506 ([1]; FK 506 25 mg/ml, dilution times with physiological saline 100, HCO-60, ethanol/surface active agent 35/65): ≧7 days
Period till solution becomes turbid to crystallize FK506 ([1]; FK 506 25 mg/ml, dilution times with physiological saline 100, HCO-60, ethanol/surface active agent 60/40): ≧1 days
Period till solution becomes turbid to crystallize FK506 ([1]; FK 506 25 mg/ml, dilution times with physiological saline 100, HCO-60, ethanol/surface active agent 80/20): ≧7 days
Period till solution becomes turbid to crystallize FK506 ([1]; FK 506 50 mg/ml, dilution times with physiological saline 2, Cremophor®EL, ethanol/surface active agent 35/65): ≧7 days
Period till solution becomes turbid to crystallize FK506 ([1]; FK 506 50 mg/ml, dilution times with physiological saline 2, Cremophor®EL, ethanol/surface active agent 80/20): ≧1 days
Period till solution becomes turbid to crystallize FK506 ([1]; FK 506 50 mg/ml, dilution times with physiological saline 2, HCO-40, ethanol/surface active agent 40/60): ≧7 days
Period till solution becomes turbid to crystallize FK506 ([1]; FK 506 50 mg/ml, dilution times with physiological saline 2, HCO-40, ethanol/surface active agent 80/20): ≧1 days
Period till solution becomes turbid to crystallize FK506 ([1]; FK 506 50 mg/ml, dilution times with physiological saline 2, HCO-60, ethanol/surface active agent 35/65): ≧7 days
Period till solution becomes turbid to crystallize FK506 ([1]; FK 506 50 mg/ml, dilution times with physiological saline 2, HCO-60, ethanol/surface active agent 60/40): ≧7 days
Period till solution becomes turbid to crystallize FK506 ([1]; FK 506 50 mg/ml, dilution times with physiological saline 2, HCO-60, ethanol/surface active agent 80/20): ≧7 days
amount of the surface active agent against 1mg of FK506 (physchem): about 150 mg
concentration of the surface active agent to prepare 5mg/ml aqueous solution FK 506 (physchem): 87 w/v%
concentration of the surface active agent to dissolve 0.1mg of FK 506 in 1ml of water (physchem; calculated from 0.035mg/ml in 0.5w/v% HCO-60 at 20 °C): 1.43 w/v%
solubility (physchem; hco-40 5 w/v% aqueous, solubility of FK506): 400 µg/mL (≈ 497 µM)
solubility (physchem; hco-40 10 w/v% aqueous, solubility of FK506): 780 µg/mL (≈ 970 µM)
solubility (physchem; hco-40 20 w/v% aqueous, solubility of FK506): 1520 µg/mL (≈ 1890 µM)
solubility (physchem; hco-60 0.1 w/v% aqueous, solubility of FK506): 5 µg/mL (≈ 6.22 µM)
solubility (physchem; hco-60 0.3 w/v% aqueous, solubility of FK506): 19 µg/mL (≈ 23.6 µM)
solubility (physchem; hco-60 0.5 w/v% aqueous, solubility of FK506): 35 µg/mL (≈ 43.5 µM)
solubility of FK506 (physchem; hco-60 5 w/v% aqueous): 290 µg/mL
solubility (physchem; hco-60 5 w/v% aqueous, solubility of FK506): 280 µg/mL (≈ 348 µM)
solubility of FK506 (physchem; hco-60 10 w/v% aqueous): 570 µg/mL
solubility (physchem; hco-60 10 w/v% aqueous, solubility of FK506): 610 µg/mL (≈ 759 µM)
solubility of FK506 (physchem; hco-60 20 w/v% aqueous): 1140 µg/mL
solubility (physchem; hco-60 20 w/v% aqueous, solubility of FK506): 1150 µg/mL (≈ 1430 µM)
solubility of FK506 (physchem; hco-60/hco-10 (4:1) 5 w/v%): 270 µg/mL
solubility (physchem; hco-60/hco-10 (4:1) 5 w/v%, solubility of FK506): 260 µg/mL (≈ 323 µM)
solubility of FK506 (physchem; hco-60/hco-10 (4:1) 10 w/v%): 560 µg/mL
solubility (physchem; hco-60/hco-10 (4:1) 10 w/v%, solubility of FK506): 560 µg/mL (≈ 696 µM)
solubility of FK506 (physchem; hco-60/hco-10 (4:1) 20 w/v%): 1140 µg/mL
solubility (physchem; hco-60/hco-10 (4:1) 20 w/v%, solubility of FK506): 1130 µg/mL (≈ 1410 µM)
solubility (physchem; water, solubility of FK 506 in water): ≤ 3 µg/mL
concentration at which FK 506 is dissolved in the experimented solvent ([2]; PEG 400, ethanol and propylene glycol (summary of Table 3)): more than 40 mg/ml
solubility ([2]; Solvent Ethanol): > 300000 µg/mL
solubility ([2]; Solvent PEG 400): > 40000 µg/mL
solubility ([2]; Solvent Propylene glycol): > 40000 µg/mL
remaining percentage of FK 506 in aqueous solution (storage stability) [3]: stability for long period storage is not expectable
